# Reference: US12336981B2, “Compounds and compositions for the inhibition of NAMPT” (Valo Health, Inc., priority 2010, dated 2025)
# pIC50: −log10 of the molar value. Where two headings read alike, the source gives them in different places.
# Experiments:
# A2780 cells = assay: In-vitro cell proliferation assay (SRB), A2780 cells; type: cell-based; settings: Homo sapiens, A2780, 72 h, A2780 cells, 72 hours, read-out: A2780 IC50
# Procedure, shortened: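 SRB read-out: 6% TCA fix 1 h at 4° C., stain, Tris solubilize, A570. Media-only background subtracted; % inhibition from two compound concentrations.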
# NAMPT = biological target: T1, NAMPT (Homo sapiens, UniProt P43490); assay: Biochemical inhibition assay: NAMPT enzymatic reaction, NMN quantified by mass spectrometry; settings: read-out: Biochem IC50
# T1 construct: His tag; host or cells: E. coli
# Procedure, shortened: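 Inhibition of E. coli-expressed His-tagged human NAMPT, measured as NMN formation by mass spectrometry after a 30 min room-temperature reaction containing 1 μM NAM, 100 μM PRPP and 2.5 mM ATP.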
# T1 sequence (P43490 whole entry): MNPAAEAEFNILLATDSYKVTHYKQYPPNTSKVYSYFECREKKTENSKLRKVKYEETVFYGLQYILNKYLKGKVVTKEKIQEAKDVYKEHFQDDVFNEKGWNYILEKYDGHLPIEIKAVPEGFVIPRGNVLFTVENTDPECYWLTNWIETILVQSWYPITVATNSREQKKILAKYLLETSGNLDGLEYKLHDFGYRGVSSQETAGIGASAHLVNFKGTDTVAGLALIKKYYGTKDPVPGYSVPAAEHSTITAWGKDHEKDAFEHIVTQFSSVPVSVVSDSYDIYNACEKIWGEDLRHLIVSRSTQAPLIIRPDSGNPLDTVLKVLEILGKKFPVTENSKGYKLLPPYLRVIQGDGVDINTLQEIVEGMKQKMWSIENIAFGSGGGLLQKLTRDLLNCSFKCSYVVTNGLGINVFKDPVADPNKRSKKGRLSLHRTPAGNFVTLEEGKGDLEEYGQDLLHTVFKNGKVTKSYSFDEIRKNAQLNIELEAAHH
structure (smiles),measurement,setting,value
"O=C(NCc1ccc(S(=O)(=O)c2cnn(-c3cccc(Cl)c3)c2)cc1)c1cc2ccncc2s1 [N-({4-[1-(3-chlorophenyl)-1H-pyrazole-4-sulfonyl]phenyl}methyl)thieno[2,3-c]pyridine-2-carboxamide]",pIC50,A2780 cells; SRB,7.86
same,pIC50,NAMPT; NAMPT enzymatic assay,8.39
Cc1cccc(S(=O)(=O)c2ccc(CNC(=O)c3cnc4nccn4c3)cc2)c1,pIC50,A2780 cells; SRB,8.04
same,pIC50,NAMPT; NAMPT enzymatic reaction,8.72
"CCc1cccc(S(=O)(=O)c2ccc(CNC(=O)c3ccc4nccn4c3)cc2)c1 [N-({4-[(3-ethylbenzene)sulfonyl]phenyl}methyl)imidazo[1,2-a]pyridine-6-carboxamide]",pIC50,A2780 cells; SRB,8.49
same,pIC50,NAMPT; NAMPT enzymatic reaction,8.32
Cc1cccc(S(=O)(=O)c2ccc(CNC(=O)c3cnc4[nH]ncc4c3)cc2)c1F,pIC50,A2780 cells; SRB,7.62
same,pIC50,NAMPT; NAMPT enzymatic reaction,7.71
"Cc1cc(C)c(S(=O)(=O)c2ccc(CNC(=O)c3cc4ccncc4s3)cc2)cc1C [N-({4-[(2,4,5-trimethylbenzene)sulfonyl]phenyl}methyl)thieno[2,3-c]pyridine-2-carboxamide]",pIC50,A2780 cells; SRB,8.09
same,pIC50,NAMPT; NAMPT enzymatic assay,8.10
COc1cc(OC)cc(S(=O)(=O)c2ccc(CNC(=O)c3cnc4[nH]ncc4c3)cc2)c1,pIC50,A2780 cells; SRB,8.66
same,pIC50,NAMPT; NAMPT enzymatic reaction,8.59
COc1cc(C)c(S(=O)(=O)c2ccc(CNC(=O)c3cc4ccncc4o3)cc2)cc1C,pIC50,A2780 cells; SRB,7.89
same,pIC50,NAMPT; NAMPT enzymatic reaction,7.91
COc1c(C)cc(S(=O)(=O)c2ccc(CNC(=O)c3cc4cnccc4[nH]3)cc2)cc1C,pIC50,A2780 cells; SRB,8.77
same,pIC50,NAMPT; NAMPT enzymatic reaction,7.29
"COc1cc(F)ccc1S(=O)(=O)c1ccc(CNC(=O)c2cc3ccncc3s2)cc1 [N-({4-[(4-fluoro-2-methoxybenzene)sulfonyl]phenyl}methyl)thieno[2,3-c]pyridine-2-carboxamide]",pIC50,A2780 cells; SRB assay,8.19
same,pIC50,NAMPT; NAMPT enzymatic reaction,8.05
"CS(=O)(=O)c1ccc(S(=O)(=O)c2ccc(CNC(=O)c3cc4cnccc4[nH]3)cc2)cc1 [N-({4-[(4-methanesulfonylbenzene)sulfonyl]phenyl}methyl)-1H-pyrrolo[3,2-c]pyridine-2-carboxamide]",pIC50,A2780 cells; SRB assay,7.92
same,pIC50,NAMPT; NAMPT enzymatic reaction,7.62
O=C(NCc1ccc(S(=O)(=O)c2cc(Cl)cc(Cl)c2)cc1)c1cnc2[nH]ncc2c1,pIC50,A2780 cells; SRB,8.68
same,pIC50,NAMPT; NAMPT enzymatic reaction,8.17
"COc1cc(F)ccc1S(=O)(=O)c1ccc(CNC(=O)c2cc3cnccc3[nH]2)cc1 [N-({4-[(4-fluoro-2-methoxybenzene)sulfonyl]phenyl}methyl)-1H-pyrrolo[3,2-c]pyridine-2-carboxamide]",pIC50,A2780 cells; SRB assay,8.15
same,pIC50,NAMPT; NAMPT enzymatic reaction,7.51
"Cc1cnc(S(=O)(=O)c2ccc(CNC(=O)c3cc4ccncc4o3)cc2)n1C [N-{[4-(1,5-dimethyl-1H-imidazole-2-sulfonyl)phenyl]methyl}furo[2,3-c]pyridine-2-carboxamide]",pIC50,A2780 cells; SRB,7.18
same,pIC50,NAMPT; NAMPT enzymatic assay,7.24
Cc1ccc(F)c(S(=O)(=O)c2ccc(CNC(=O)c3cc4ccncc4o3)cc2)c1,pIC50,A2780 cells; SRB,7.87
same,pIC50,NAMPT; NAMPT enzymatic reaction,8.23
COc1ccc(C)cc1S(=O)(=O)c1ccc(CNC(=O)c2cnc3nccn3c2)cc1,pIC50,A2780 cells; SRB,8.14
same,pIC50,NAMPT; NAMPT enzymatic reaction,8.41
O=C(NCc1ccc(S(=O)(=O)c2ccccc2)cc1)c1ccc2scnc2c1 [N-(4-(phenylsulfonyl)benzyl)benzo[d]thiazole-5-carboxamide],pIC50,A2780 cells; SRB assay,5.41
same,pIC50,NAMPT; NAMPT enzymatic reaction,7.33
Cc1ccc(S(=O)(=O)c2ccc(CNC(=O)c3cc4ccncc4s3)cc2)c(Cl)c1,pIC50,A2780 cells; SRB,8.80
same,pIC50,NAMPT; NAMPT enzymatic reaction,7.60
"O=C(NCc1ccc(S(=O)(=O)c2ccccc2)cc1)c1cc2nccnc2s1 [N-{[4-(benzenesulfonyl)phenyl]methyl}thieno[2,3-b]pyrazine-6-carboxamide]",pIC50,A2780 cells; SRB assay,< 4.52
same,pIC50,NAMPT; NAMPT enzymatic reaction,7.28
COc1ccc(C(C)=O)cc1S(=O)(=O)c1ccc(CNC(=O)c2cc3ccncc3o2)cc1,pIC50,A2780 cells; SRB,8.42
same,pIC50,NAMPT; NAMPT enzymatic reaction,8.14
COc1cc(F)c(F)cc1S(=O)(=O)c1ccc(CNC(=O)c2cnc3nccn3c2)cc1,pIC50,A2780 cells; SRB,7.60
same,pIC50,NAMPT; NAMPT enzymatic reaction,7.92
"O=C(NCc1ccc(S(=O)(=O)c2cccc(C(F)(F)F)n2)cc1)c1ccc2nccn2c1 [N-({4-[6-(trifluoromethyl)pyridine-2-sulfonyl]phenyl}methyl)imidazo[1,2-a]pyridine-6-carboxamide]",pIC50,A2780 cells; SRB,8.82
same,pIC50,NAMPT; NAMPT enzymatic assay,8.06
"COc1cc(C)cc(S(=O)(=O)c2ccc(CNC(=O)c3cc4ccncc4s3)cc2)c1OC [N-({4-[(2,3-dimethoxy-5-methylbenzene)sulfonyl]phenyl}methyl)thieno[2,3-c]pyridine-2-carboxamide]",pIC50,A2780 cells; SRB,8.57
same,pIC50,NAMPT; NAMPT enzymatic assay,8.22
COc1ccc(OC)c(S(=O)(=O)c2ccc(CNC(=O)c3cc4ccncc4o3)cc2)c1,pIC50,A2780 cells; SRB,8.20
same,pIC50,NAMPT; NAMPT enzymatic reaction,7.94
CCOc1cc(F)ccc1S(=O)(=O)c1ccc(CNC(=O)c2ccc3nccn3c2)cc1,pIC50,A2780 cells; SRB,8.82
same,pIC50,NAMPT; NAMPT enzymatic reaction,7.50
"COc1cccc(Cl)c1S(=O)(=O)c1ccc(CNC(=O)c2ccc3nccn3c2)cc1 [N-({4-[(2-chloro-6-methoxybenzene)sulfonyl]phenyl}methyl)imidazo[1,2-a]pyridine-6-carboxamide]",pIC50,A2780 cells; SRB,7.59
same,pIC50,NAMPT; NAMPT enzymatic reaction,7.69
"COc1ccc(OC)c(S(=O)(=O)c2ccc(CNC(=O)c3cnc4[nH]ncc4c3)cc2)c1 [N-({4-[(2,5-dimethoxybenzene)sulfonyl]phenyl}methyl)-1H-pyrazolo[3,4-b]pyridine-5-carboxamide]",pIC50,A2780 cells; SRB,7.61
same,pIC50,NAMPT; NAMPT enzymatic reaction,7.40
"Cc1ccc(C)c(S(=O)(=O)c2ccc(CNC(=O)c3cc4cnccc4[nH]3)cc2)c1 [N-({4-[(2,5-dimethylbenzene)sulfonyl]phenyl}methyl)-1H-pyrrolo[3,2-c]pyridine-2-carboxamide]",pIC50,A2780 cells; SRB assay,7.85
same,pIC50,NAMPT; NAMPT enzymatic reaction,7.96
COc1ccc(S(=O)(=O)c2ccc(CNC(=O)c3cnc4[nH]ncc4c3)cc2)c(F)c1,pIC50,A2780 cells; SRB,6.68
same,pIC50,NAMPT; NAMPT enzymatic reaction,6.92
"O=C(NCc1ccc(S(=O)(=O)c2cccnc2)cc1)c1cc2ccncc2o1 [N-{[4-(pyridine-3-sulfonyl)phenyl]methyl}furo[2,3-c]pyridine-2-carboxamide]",pIC50,A2780 cells; SRB,7.18
same,pIC50,NAMPT; NAMPT enzymatic assay,8.05
"CCOc1cc(S(=O)(=O)c2ccc(CNC(=O)c3cnc4nccn4c3)cc2)ccc1F [N-({4-[(3-ethoxy-4-fluorobenzene)sulfonyl]phenyl}methyl)imidazo[1,2-a]pyrimidine-6-carboxamide]",pIC50,A2780 cells; SRB,8.11
same,pIC50,NAMPT; NAMPT enzymatic reaction,9.52
"O=C(NCc1ccc(S(=O)(=O)c2ccccc2)cc1)c1cn2ccncc2n1 [N-{[4-(benzenesulfonyl)phenyl]methyl}imidazo[1,2-a]pyrazine-2-carboxamide]",pIC50,A2780 cells; SRB assay,< 4.52
same,pIC50,NAMPT; NAMPT enzymatic reaction,5.83
"O=C(NCc1ccc(S(=O)(=O)c2ccc(-n3cccn3)nc2)cc1)c1ccc2nccn2c1 [N-({4-[6-(1H-pyrazol-1-yl)pyridine-3-sulfonyl]phenyl}methyl)imidazo[1,2-a]pyridine-6-carboxamide]",pIC50,A2780 cells; SRB,8.72
same,pIC50,NAMPT; NAMPT enzymatic assay,8.40
CCOc1ccc(S(=O)(=O)c2ccc(CNC(=O)c3cnc4[nH]ncc4c3)cc2)cc1,pIC50,A2780 cells; SRB,8.08
same,pIC50,NAMPT; NAMPT enzymatic reaction,7.82
"O=C(NCc1ccc(S(=O)(=O)c2ccc(OCC(F)(F)F)c(F)c2)cc1)c1cnc2[nH]ncc2c1 [N-[(4-{[3-fluoro-4-(2,2,2-trifluoroethoxy)benzene]sulfonyl}phenyl)methyl]-1H-pyrazolo[3,4-b]pyridine-5-carboxamide]",pIC50,A2780 cells; SRB,7.65
same,pIC50,NAMPT; NAMPT enzymatic assay,7.99
"CCOc1cc(S(=O)(=O)c2ccc(CNC(=O)c3cnc4[nH]ncc4c3)cc2)ccc1F [N-({4-[(3-ethoxy-4-fluorobenzene)sulfonyl]phenyl}methyl)-1H-pyrazolo[3,4-b]pyridine-5-carboxamide]",pIC50,A2780 cells; SRB,7.92
same,pIC50,NAMPT; NAMPT enzymatic reaction,7.58
"Cc1cc(C)c(S(=O)(=O)c2ccc(CNC(=O)c3cnc4[nH]ncc4c3)cc2)c(C)c1 [N-({4-[(2,4,6-trimethylbenzene)sulfonyl]phenyl}methyl)-1H-pyrazolo[3,4-b]pyridine-5-carboxamide]",pIC50,A2780 cells; SRB,6.00 to 7.00
same,pIC50,NAMPT; NAMPT enzymatic reaction,6.87
"Cc1ccc(S(=O)(=O)c2ccc(CNC(=O)c3ccc4nccn4c3)cc2)cc1C [N-({4-[(3,4-dimethylbenzene)sulfonyl]phenyl}methyl)imidazo[1,2-a]pyridine-6-carboxamide]",pIC50,A2780 cells; SRB,8.53
same,pIC50,NAMPT; NAMPT enzymatic reaction,7.95
"CN(C)c1ccc(S(=O)(=O)c2ccc(CNC(=O)c3ccc4nccn4c3)cc2)cn1 [N-({4-[6-(dimethylamino)pyridine-3-sulfonyl]phenyl}methyl)imidazo[1,2-a]pyridine-6-carboxamide]",pIC50,A2780 cells; SRB,8.57
same,pIC50,NAMPT; NAMPT enzymatic assay,7.35
"O=C(NCc1ccc(S(=O)(=O)c2cnn(-c3ccc(F)cc3)c2)cc1)c1cc2ccncc2o1 [N-({4-[1-(4-fluorophenyl)-1H-pyrazole-4-sulfonyl]phenyl}methyl)furo[2,3-c]pyridine-2-carboxamide]",pIC50,A2780 cells; SRB,8.13
same,pIC50,NAMPT; NAMPT enzymatic assay,8.16
"O=C(NCc1ccc(S(=O)(=O)c2ccc(Cl)cc2C(F)(F)F)cc1)c1cnc2[nH]ncc2c1 [N-[(4-{[4-chloro-2-(trifluoromethyl)benzene]sulfonyl}phenyl)methyl]-1H-pyrazolo[3,4-b]pyridine-5-carboxamide]",pIC50,A2780 cells; SRB,7.11
same,pIC50,NAMPT; NAMPT enzymatic assay,6.83
"CC(=O)c1cccc(S(=O)(=O)c2ccc(CNC(=O)c3cc4ccncc4o3)cc2)c1 [N-({4-[(3-acetylbenzene)sulfonyl]phenyl}methyl)furo[2,3-c]pyridine-2-carboxamide]",pIC50,A2780 cells; SRB,8.10
same,pIC50,NAMPT; NAMPT enzymatic reaction,7.75
COc1ccc(S(=O)(=O)c2ccc(CNC(=O)c3cnc4nccn4c3)cc2)cc1C,pIC50,A2780 cells; SRB,8.26
same,pIC50,NAMPT; NAMPT enzymatic reaction,8.66
"CCCCOc1cccc(S(=O)(=O)c2ccc(CNC(=O)c3cnc4[nH]ncc4c3)cc2)c1 [N-({4-[(3-butoxybenzene)sulfonyl]phenyl}methyl)-1H-pyrazolo[3,4-b]pyridine-5-carboxamide]",pIC50,A2780 cells; SRB,7.17
same,pIC50,NAMPT; NAMPT enzymatic reaction,7.42
CCc1cccc(S(=O)(=O)c2ccc(CNC(=O)c3cnc4nccn4c3)cc2)c1,pIC50,A2780 cells; SRB,8.39
same,pIC50,NAMPT; NAMPT enzymatic reaction,8.42
CS(=O)(=O)c1ccccc1S(=O)(=O)c1ccc(CNC(=O)c2cc3ccncc3o2)cc1,pIC50,A2780 cells; SRB,6.00 to 7.00
same,pIC50,NAMPT; NAMPT enzymatic reaction,7.27
